# Laboratory results as given in article PMC5431875, “In situ click chemistry generation of cyclooxygenase-2 inhibitors” (Nature Communications, 2017).
# Like-named read-outs stand apart in the source and are kept apart here.
# What was measured:
# ovine COX-1 = biological target: T1, ovine COX-1 (Ovis aries, UniProt P05979); test: COX inhibitor assay (Cayman 700100), COX-1
# T1 sequence (P05979 25-600): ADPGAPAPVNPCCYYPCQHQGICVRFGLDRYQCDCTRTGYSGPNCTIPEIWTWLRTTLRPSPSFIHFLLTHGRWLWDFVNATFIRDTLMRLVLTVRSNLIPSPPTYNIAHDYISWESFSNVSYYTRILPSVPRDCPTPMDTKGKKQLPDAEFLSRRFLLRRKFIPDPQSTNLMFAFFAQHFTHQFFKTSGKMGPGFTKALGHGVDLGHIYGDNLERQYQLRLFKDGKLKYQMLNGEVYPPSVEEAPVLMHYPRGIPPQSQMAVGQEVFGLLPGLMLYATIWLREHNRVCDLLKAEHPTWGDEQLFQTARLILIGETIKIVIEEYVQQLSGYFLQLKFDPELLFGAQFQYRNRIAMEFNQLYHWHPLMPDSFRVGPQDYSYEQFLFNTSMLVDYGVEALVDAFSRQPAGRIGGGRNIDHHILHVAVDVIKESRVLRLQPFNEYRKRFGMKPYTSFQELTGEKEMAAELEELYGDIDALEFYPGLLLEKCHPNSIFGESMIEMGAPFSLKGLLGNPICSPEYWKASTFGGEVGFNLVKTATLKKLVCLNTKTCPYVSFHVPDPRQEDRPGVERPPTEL
# Protocol: (§1) Each compound was assayed in concentration range of 10^−9 M to 10^−3 M, in triplicate. PRISM5 software was used to calculate IC50 values.
# recombinant human COX-2 = biological target: T2, recombinant human COX-2 (Homo sapiens, UniProt P35354); test: COX inhibitor assay (Cayman 700100), COX-2
# T2 sequence (P35354 18-604): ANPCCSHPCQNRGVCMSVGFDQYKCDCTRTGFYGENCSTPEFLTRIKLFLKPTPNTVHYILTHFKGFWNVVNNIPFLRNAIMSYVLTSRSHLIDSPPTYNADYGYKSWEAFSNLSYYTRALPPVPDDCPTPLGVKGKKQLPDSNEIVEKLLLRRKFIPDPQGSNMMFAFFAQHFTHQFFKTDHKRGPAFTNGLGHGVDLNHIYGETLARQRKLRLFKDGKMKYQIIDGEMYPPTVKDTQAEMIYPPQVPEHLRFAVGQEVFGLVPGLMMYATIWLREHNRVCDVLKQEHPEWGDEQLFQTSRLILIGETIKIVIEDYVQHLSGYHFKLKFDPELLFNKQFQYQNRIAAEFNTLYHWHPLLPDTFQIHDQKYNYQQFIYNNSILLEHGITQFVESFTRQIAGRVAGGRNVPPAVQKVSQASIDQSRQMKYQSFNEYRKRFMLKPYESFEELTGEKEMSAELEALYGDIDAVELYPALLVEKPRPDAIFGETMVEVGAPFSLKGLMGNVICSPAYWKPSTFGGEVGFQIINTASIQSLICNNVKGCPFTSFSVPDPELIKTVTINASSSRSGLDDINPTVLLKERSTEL
# Protocol: as §1
# COX-2 in HCA-7 cells = biological target: T3, COX-2 in HCA-7 cells (Homo sapiens, UniProt P35354); test: Cellular COX-2 inhibitory activity (PGE2 ELISA) in HCA-7 cells; assay type: cell-based; conditions: mean of three determinations, read-out: Cell COX-2 IC50
# T3 construct: endogenous in cells; host or cells: HCA-7
# T3 sequence (P35354 18-604): T2 sequence (P35354 18-604)
# Protocol: Based on the in vitro COX-2 inhibitory data, seventeen compounds (Table 2) were selected and further evaluated for their cellular COX-2 inhibitory activity in COX-2 expressing colorectal cancer cell line HCA-7. […]
# HCA-7 cells (colorectal cancer cell line, COX-2 expression is confirmed with immunoblotting). The HCA-7 cells were cultured in T75 flasks using DMEM/F12 (1:1) medium supplemented with 10% (v/v) fetal bovine […]
# were washed three times for 5 min with 1 ml PBS. Cells were negatively tested for mycoplasma contamination either by the vendor or in house. […]
# vehicle (solvent) at concentration range of 10−9 M to 10−3 M. After 30 min incubation the reaction was stopped on ice and supernatants were taken and COX-2 mediated production of PGE2 was immediately determined […]
# concentration is quantified by following manufacturer assay procedure. All experiments were done three times and ±s.e.m. were calculated.
# The PRISM5 software was used to calculate IC50 values.
# [1] = test system: carrageenan-induced rat paw edema; test: Carrageenan-induced rat paw edema assay; assay type: in vivo; conditions: for Change in behavior and toxic effects: oral doses of the edema assay; for ED50 anti-inflammatory activity: p.o.; for times more potent than celecoxib: versus celecoxib ED50 at 3 h
# Protocol: In vivo anti-inflammatory activity was measured using a carrageenan-induced rat paw edema assay. In brief, three to five male Sprague–Dawley rats, 8–11-weeks-old, weighing 180–200 g (Charles-River Canada) were used in each group. […] A dose–response curve was constructed using GraphPad Prism 5.0 and ED50were calculated. […] In vivo anti-inflammatory assays were carried using a protocol approved by the Health Sciences Animal Welfare Committee, University of Alberta, Edmonton, Canada.
SMILES,IC50 (ovine COX-1) [µM],IC50 (recombinant human COX-2) [µM],COX-2 SI (selectivity index) (recombinant human COX-2; (COX-1 IC50)/(COX-2 IC50)),IC50 (COX-2 in HCA-7 cells) [µM],melting point [°C],COX-2 SI (selectivity index) (recombinant human COX-2),Change in behavior and toxic effects [1],ED50 anti-inflammatory activity ([1]; 3 h time point) [mg/kg],ED50 anti-inflammatory activity ([1]; 5 h time point) [mg/kg],times more potent than celecoxib [1] [times]
c1ccc(-c2cn(-c3cc(-c4ccccc4)nn3-c3ccccc3)nn2)cc1 [Compound 7],> 100,0.9,>111.1,3,–,–,–,–,–,–
Clc1ccc(-c2cn(-c3cc(-c4ccccc4)nn3-c3ccccc3)nn2)cc1 [Compound 8],> 100,0.16,>625,4,134 to 136,–,–,–,–,–
Fc1ccc(-c2cn(-c3cc(-c4ccccc4)nn3-c3ccccc3)nn2)cc1 [Compound 9],> 100,0.14,>714.2,2,129 to 131,–,–,–,–,–
COc1ccc(-c2cn(-c3cc(-c4ccccc4)nn3-c3ccccc3)nn2)cc1 [Compound 10],> 100,15.2,>6.5,–,–,–,–,–,–,–
Cc1ccc(-c2cn(-c3cc(-c4ccccc4)nn3-c3ccccc3)nn2)cc1 [Compound 11],> 100,3.2,>31.2,2,125 to 127,–,–,–,–,–
CCc1ccc(-c2cn(-c3cc(-c4ccccc4)nn3-c3ccccc3)nn2)cc1 [Compound 12],> 100,18,>5.5,–,130 to 133,–,–,–,–,–
Cc1cc(-n2cc(-c3ccccc3)nn2)n(-c2ccc(S(C)(=O)=O)cc2)n1 [Compound 16],> 100,10,>10,–,146 to 148,–,–,–,–,–
Cc1cc(-n2cc(-c3ccc(Cl)cc3)nn2)n(-c2ccc(S(C)(=O)=O)cc2)n1 [Compound 17],> 100,1.1,>90.9,1,145 to 148,–,–,–,–,–
"Cc1cc(-n2cc(-c3ccc(F)cc3)nn2)n(-c2ccc(S(C)(=O)=O)cc2)n1 [Compound 18, 4-(4-fluorophenyl)-1-[2-(4-methanesulfonyl-phenyl)-5-methyl-2H-pyrazol-3-yl]-1H [1,2,3]triazole]",> 100,0.09,–,0.06,–,">1,111.1",No unusual change in behavior and toxic effects,0.44,0.99,> 25
COc1ccc(-c2cn(-c3cc(C)nn3-c3ccc(S(C)(=O)=O)cc3)nn2)cc1 [Compound 19],> 100,26,>3.84,–,–,–,–,–,–,–
Cc1ccc(-c2cn(-c3cc(C)nn3-c3ccc(S(C)(=O)=O)cc3)nn2)cc1 [Compound 20],> 100,19,>5.26,–,–,–,–,–,–,–
"Cc1cc(-n2cc(-c3ccc(N)cc3)nn2)n(-c2ccc(S(C)(=O)=O)cc2)n1 [Compound 21, 4-{1-[2-(4-methanesulfonyl-phenyl)-5-methyl-2H-pyrazol-3-yl]-1H-[1,2,3]triazol-4-yl}-phenylamine]",> 100,0.05,–,0.08,–,">2,000",No unusual change in behavior and toxic effects,0.12,0.34,> 25
Cc1cc(-n2cc(-c3ccc(C(F)(F)F)cc3)nn2)n(-c2ccc(S(C)(=O)=O)cc2)n1 [Compound 22],> 100,0.22,>454.5,0.15,209 to 211,–,–,–,–,–
Cc1cc(-n2cc(CC(C)C)nn2)n(-c2ccc(S(C)(=O)=O)cc2)n1 [Compound 23],> 100,6.2,>16.1,–,150 to 153,–,–,–,–,–
Cc1cc(-n2cc(CN3CCOCC3)nn2)n(-c2ccc(S(C)(=O)=O)cc2)n1 [Compound 24],> 100,0.82,>121.9,0.7,172 to 174,–,–,–,–,–
Cc1cc(-n2cc(CN3CCCCC3)nn2)n(-c2ccc(S(C)(=O)=O)cc2)n1 [Compound 25],> 100,5.2,>19.2,11,–,–,–,–,–,–
CS(=O)(=O)c1ccc(-n2nc(-c3ccccc3)cc2-n2cc(-c3ccc(F)cc3)nn2)cc1 [Compound 28],> 100,0.14,>714.2,0.2,–,–,–,–,–,–
CS(=O)(=O)c1ccc(-n2nc(-c3ccccc3)cc2-n2cc(-c3ccc(N)cc3)nn2)cc1 [Compound 29],> 100,2.7,>37.0,0.1,–,–,–,–,–,–
Cc1cc(-n2cc(-c3ccc(F)cc3)nn2)n(-c2ccccc2)n1 [Compound 32],45.5,12,3.7,0.1,–,–,–,–,–,–
Cc1cc(-n2cc(-c3ccc(N)cc3)nn2)n(-c2ccccc2)n1 [Compound 33],57.9,8.6,6.73,0.1,–,–,–,–,–,–
